The values below come from paper PMC5772529 (Scientific Reports, 2018).

Positions of bridges follow the written chain, without caps; N, C: chain ends. Residues, ends and D or L forms follow the SMILES beside them.

Data set [1] deals with mice. Particulars: mouse, in vivo.
In data set [2] the test system is Beagle dogs. The settings on record: dog, in vivo.
Data set [3] concerns rats. The settings on record: rat, in vivo.
The test system of data set [4] is mice. Particulars: mouse, in vivo. This is another data set of the same source.
Data set [5] has as its system KCNQ1.
The test system of data set [6] is mice. Particulars: mouse, in vivo. This is another data set of the same source.

As for `CSCC[C@@H]1NC(=O)[C@@H]2CSSC[C@H](NC(=O)CN)C(=O)N[C@@H](CSSC[C@@H](C(N)=O)NC(=O)[C@H](CC(C)C)NC(=O)[C@H](CC(N)=O)NC(=O)[C@@H]3CCCN3C(=O)[C@H](CC(N)=O)NC(=O)[C@H](CCCCN)NC(=O)[C@H](CC(C)C)NC1=O)C(=O)N[C@@H](CO)C(=O)N[C@@H](CC(N)=O)C(=O)N1CCC[C@H]1C(=O)N[C@@H](C)C(=O)N2` [Eu1.6] (H-GCCSNPACMLKNPNLC-NH2; disulfide 2-8, 3-16), in data set [1], the “effect on mice motor function” value was “did not show any significant effect”. Besides, in data set [2], the “effect on cardiac or respiratory function” value is “did not show any significant effect”; the “effect on the cardiac and respiratory function” value is reported as “no significant effect”. Further, the “side-effects in acute tests of rats” value in data set [3] is listed as “did not exhibit any significant side-effects”. In data set [4], the morphine-like addictive symptoms result was “did not exhibit the morphine-like addictive symptoms” and the “morphine-like dependence (naloxone-induced jumping number, weight loss)” value is listed as “did not produce morphine-like dependence”. The “activity at KCNQ1 channels” value in data set [5] is on record as “no activity”. In data set [6], the “effects on mice spontaneous locomotor activity” value is recorded as “no significant effects”; the “effects on spontaneous locomotor activity (moving distance and activity time in 6 min)” value is given as “no significant effects”.
